Measured values taken from paper PMC1802613 (Nucleic Acids Research, 2006).

Molecular target: M-PMV NC-dUTPase (Mason-Pfizer monkey virus, UniProt P07570)
Experiment: isothermal titration calorimetry
Assay type: binding

M-PMV NC-dUTPase, sequence (P07570 526-759): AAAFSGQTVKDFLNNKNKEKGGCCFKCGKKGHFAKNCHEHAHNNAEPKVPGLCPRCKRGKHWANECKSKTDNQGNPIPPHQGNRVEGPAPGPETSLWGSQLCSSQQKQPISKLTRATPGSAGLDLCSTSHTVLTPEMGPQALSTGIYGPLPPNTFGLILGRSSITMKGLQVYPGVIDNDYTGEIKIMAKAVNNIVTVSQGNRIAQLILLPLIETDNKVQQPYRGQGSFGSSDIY

Kd: 1200 ± 20 nM
SMILES: O=c1ccn([C@H]2C[C@H](O)[C@@H](COP(=O)(O)NP(=O)(O)OP(=O)(O)O)O2)c(=O)[nH]1 [α,β-imino dUTP]
